Measured values published in paper PMC8003416, “Modulation of Human Phenylalanine Hydroxylase by 3-Hydroxyquinolin-2(1H)-One Derivatives” (Biomolecules, 2021).
Several values for one entry are separate records, joined by “and”; a condition that tells them apart may be missing. Equal entries are not always repeated.

Tests used:
[1] = Alamar Blue cell viability assay; assay type: cell-based; conditions: human, HEK-293T cells
Protocol: (§1) Cytotoxicity of selected 3HQs was assessed in HEK-293T cells using the Alamar Blue assay as a general cell viability endpoint method that monitors the cellular metabolic state, and the propidium iodide (PI) exclusion assay was used to evaluate membrane integrity essentially as described. The 3HQs were tested at a final concentration of 50 and 100 μM (two independent assays; five replicates each). Control assays were performed using 1% DMSO (negative control), or SDS at 1 mg/mL as a positive control of cell death in the PI assay. HEK-293T cells were seeded in sterile flat bottom 96-well tissue culture plates, in RPMI 1640 culture medium, supplemented with 10% fetal bovine serum, 100 units/mL of penicillin G (sodium salt), 100 μg/mL of streptomycin sulphate and 2 mM L-glutamine, at a cell density of 2 × 10^4 cells per well. Cells were incubated at 37 °C and 5% CO2. The culture medium was replaced by fresh medium (supplemented as above) containing the different 3HQs to be analyzed. After 24 h incubation, the culture medium was replaced by […] PI (Sigma-Aldrich) in fresh medium (stock solution 1.5 mM in DMSO) and fluorescence was measured (λexc 485 nm, λem 590 nm) in a FLUOstar Omega microplate reader. The Alamar Blue assay was performed by replacing the culture medium with fresh medium containing 5 mM resazurin (Invitrogen). The cells were further incubated for 3 h and fluorescence was measured (λexc 530 nm, λem 590 nm) in a FLUOstar Omega microplate reader (BMG Labtech). The relative PI uptake and cell viability (%) were calculated using Equations (3) and (4), respectively. Relative PI uptake = Fluorescence intensitysample/Fluorescence intensitynegative control(3) Relative cell viability (%) = Fluorescence intensitysample/Fluorescence intensitycontrol × 100(4)

HEK-293T cells = assay: Propidium iodide exclusion assay (membrane integrity); assay type: cell-based; conditions: 100 μM, 24 h; negative control 1.0 ± 0.1
Protocol: as §1, with “HEK-293T cells were seeded in sterile flat bottom 96-well tissue culture plates, in RPMI 1640 culture medium, supplemented with 10% fetal bovine serum, 100 units/mL of penicillin G (sodium salt), 100 μg/mL of streptomycin sulphate and 2 mM L-glutamine, at a cell density of 2 × 10^4 cells per well. Cells were incubated at 37 °C and 5% CO2.” left out, “The Alamar Blue assay was performed by replacing the culture medium with fresh medium containing 5 mM resazurin (Invitrogen).” left out

Factor Xa (FXa) = biological target: T1, Factor Xa (FXa) (Bos taurus, UniProt P00743); assay: Factor Xa activity control with Boc-Ile-Glu-Gly-Arg-AMC; assay type: biochemical; conditions: 100 μM compound; for FXa relative (residual) enzyme activity: 1% DMSO control = 100%; for Factor Xa Abs/min: control 597 ± 16
T1 construct: purchased New England Biolabs
T1 sequence (P00743 234-492 limits assumed): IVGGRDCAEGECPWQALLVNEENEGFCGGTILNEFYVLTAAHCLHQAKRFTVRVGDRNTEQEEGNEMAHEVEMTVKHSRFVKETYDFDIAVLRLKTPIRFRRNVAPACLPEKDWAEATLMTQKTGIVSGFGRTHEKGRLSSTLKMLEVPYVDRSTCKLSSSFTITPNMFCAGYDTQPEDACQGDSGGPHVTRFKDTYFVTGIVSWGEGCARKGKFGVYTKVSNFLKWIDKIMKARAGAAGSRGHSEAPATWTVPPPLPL
T1 sequence (P00743 41-180 partner limits assumed): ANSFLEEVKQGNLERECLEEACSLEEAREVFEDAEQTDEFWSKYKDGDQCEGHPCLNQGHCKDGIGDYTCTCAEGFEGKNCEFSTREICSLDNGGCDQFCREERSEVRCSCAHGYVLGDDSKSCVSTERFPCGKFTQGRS
Protocol: (§2) Self-assembly of the dimeric forms of hPAH-RD^1–120 was followed in real-time at 25 °C upon cleavage of MBP-FXa-hPAH-RD^1–120 with FXa (New England Biolabs) to release the MBP fusion partner. Assays (n = 3) were performed in the absence or presence of tested compounds as described in [17]. Briefly, FXa (at a final ratio 1:150 (w/w) relative to the fusion protein) was added to the reaction mixture containing the MBP-FXa-hPAH-RD^1–120 fusion protein (0.74 mg/mL), 20 mM Na-HEPES, 100 mM NaCl, pH 7.0 and tested 3HQ (100 μM). The increase in absorbance at 350 nm was followed for 180 min on a FLUOstar Omega (BMG Labtech) microplate reader. A shaking step was introduced before each measurement. Appropriate control assays were performed and included: (i) a positive control consisting of MBP-FXa-hPAH-RD^1–120 in the presence of FXa, 1% DMSO and in the absence of compounds; and (ii) a negative control consisting of MBP-FXa-hPAH-RD^1–120 in the absence of FXa and compounds. For all the assays, aliquots of the aggregation reaction were collected at the end of the reaction (180 min) and analyzed by SDS-PAGE to confirm the extent of MBP cleavage by FXa. In addition, the effect of tested compounds on FXa activity was monitored using the synthetic FXa substrate Boc–Ile–Glu-Gly–Arg–AMC (t-(Butyloxycarbonyl)-isoleucylglutamylglycylarginyl-7-amido-4-methylcoumarin; from Bachem). Assays (n = 3) were performed in a 96-well plate, in a final volume of 200 μL containing 20 mM Na-HEPES, 100 mM NaCl, pH 7.0, 5 μg/mL of FXa, 50 μM of Boc–Ile-Glu–Gly–Arg–AMC and 100 μM of 3HQ derivatives. Fluorescence was measured in real-time (λexc 360 nm and λem 460 nm) during 30 min, at 25 °C. Controls were performed using substrate alone with 1% DMSO (negative control) and FXa with no compounds and 1% DMSO (positive control).

[2] = biological target: T2, hPAH-RD^1–120 (N-terminal regulatory domain) (Homo sapiens, UniProt P00439); assay: Light scattering assay of hPAH-RD1–120 self-association
T2 construct: consisting solely of the N-terminal regulatory domain (amino acids 1–120); made in house; host or cells: E. coli TB1
T2 sequence (P00439 1-120): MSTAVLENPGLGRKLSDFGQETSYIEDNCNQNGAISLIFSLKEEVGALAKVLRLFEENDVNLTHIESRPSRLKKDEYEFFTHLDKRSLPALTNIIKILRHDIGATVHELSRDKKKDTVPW
Protocol: as §2

[3] = biological target: T3, human phenylalanine hydroxylase (hPAH) (Homo sapiens, UniProt P00439); design: method as in PMID 12379147, PMID 15060071; conditions: ref [24],[25]; read-out: KD of L-Phe, previously reported SPR values; cited from earlier work
T3 construct: Recombinant full-length wild-type (WT) hPAH was expressed in E. coli Top10 cells in fusion with a hexa-histidyl peptide; made in house; host or cells: E. coli Top10
T3 sequence (P00439 1-452): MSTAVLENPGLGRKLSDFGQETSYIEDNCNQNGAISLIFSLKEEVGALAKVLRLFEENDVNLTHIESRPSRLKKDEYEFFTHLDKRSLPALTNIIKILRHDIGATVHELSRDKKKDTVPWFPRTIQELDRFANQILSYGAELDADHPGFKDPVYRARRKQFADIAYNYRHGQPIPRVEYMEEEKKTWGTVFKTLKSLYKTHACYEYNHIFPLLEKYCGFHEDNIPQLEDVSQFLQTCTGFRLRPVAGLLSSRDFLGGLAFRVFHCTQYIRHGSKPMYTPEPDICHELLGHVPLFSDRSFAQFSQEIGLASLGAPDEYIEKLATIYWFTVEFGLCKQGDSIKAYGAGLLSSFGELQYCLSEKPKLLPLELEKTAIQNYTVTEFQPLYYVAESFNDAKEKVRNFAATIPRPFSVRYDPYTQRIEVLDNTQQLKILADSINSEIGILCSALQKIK

| Compound | viability at 24 h, 50 µM [1] [%] | viability at 24 h, 100 µM [1] [%] | relative PI uptake (HEK-293T cells) | FXa relative (residual) enzyme activity (Factor Xa (FXa)) [%] | Factor Xa Abs/min (Factor Xa (FXa)) [Abs/min] | effect on hPAH-RD^1–120 aggregation ([2]; 100 μM, 180 min, 25 °C) | effect on hPAH-RD^1–120 aggregation ([2]; 1 mM L-Phe) | Kd [3] |
| --- | --- | --- | --- | --- | --- | --- | --- | --- |
| COC(=O)CC[C@H](NC(=O)c1c(O)c(=O)[nH]c2ccc(OC(F)(F)F)cc12)C(=O)OC [Compound 9] | 85 ± 32 | 82 ± 13 | 1.0 ± 0.0 | 77 | 465 ± 29 |  |  |  |
| COC(=O)CNC(=O)c1c(O)c(=O)[nH]c2ccc(OC(F)(F)F)cc12 [Compound 11] | 94 ± 3 | 101 ± 5 | 1.0 ± 0.1 | 69 | 407 ± 8 | no direct evidence of a direct binding to hPAH-RD^1–120 was obtained |  |  |
| N[C@@H](Cc1ccccc1)C(=O)O [L-Phe, L-phenylalanine, reference compound] |  |  |  |  |  | only slightly prevented hPAH-RD^1–120 aggregation | completely blocked it | 97 µM and 136 µM |
